Data as given in the OligoGym collection.
After the bases stand the sugars from the 5' end (letter, count) and the backbone: PS all phosphorothioate, else s phosphorothioate and o phosphodiester by linkage. Methylation of C is not given here. e = 2'-O-(2-methoxyethyl) (MOE); k = constrained ethyl (cEt); d = 2'-deoxy (DNA); m = 2'-O-methyl

Target: HSD17B13
Conditions: ASO, HepaRG

GACAAGAGTTCTTGCA (sugars k3 d10 k3, PS)
target mRNA inhibition (1 µM): 22%

GGTTGAGATAAAGCTG (sugars k3 d10 k3, PS)
target mRNA inhibition (0.02 µM): 0% | target mRNA inhibition (0.078 µM): 0% | target mRNA inhibition (0.313 µM): 37% | target mRNA inhibition (1 µM): 76% | target mRNA inhibition (1.25 µM): 65% | target mRNA inhibition (5 µM): 86%

AAACATGGATGTTAGG (sugars k3 d10 k3, PS)
target mRNA inhibition (1 µM): 56%

GCTTUTGTCCACCTTT (sugars k3 d1 m1 d8 k3, PS)
target mRNA inhibition (0.02 µM): 0% | target mRNA inhibition (0.078 µM): 0% | target mRNA inhibition (0.313 µM): 13% | target mRNA inhibition (1 µM): 75% | target mRNA inhibition (1.25 µM): 70% | target mRNA inhibition (5 µM): 89%

CTCTATTGGTGTTTTA (sugars k3 d10 k3, PS)
target mRNA inhibition (1 µM): 32%

TGTAAGAGTCAGTATC (sugars k3 d10 k3, PS)
target mRNA inhibition (1 µM): 43%

GGACCAATATAATCCA (sugars k3 d10 k3, PS)
target mRNA inhibition (1 µM): 20%

AACAGTCTTAAACCTT (sugars k3 d10 k3, PS)
target mRNA inhibition (1 µM): 82%

TGTTTTAGTATTTGGG (sugars k3 d10 k3, PS)
target mRNA inhibition (1 µM): 48%

GAATTTTTGAGGTTGG (sugars k3 d10 k3, PS)
target mRNA inhibition (0.02 µM): 17% | target mRNA inhibition (0.078 µM): 26% | target mRNA inhibition (0.313 µM): 62% | target mRNA inhibition (1 µM): 77% | target mRNA inhibition (1.25 µM): 92% | target mRNA inhibition (5 µM): 91%

TGCAGCATTGATTCGA (sugars k3 d1 m1 d8 k3, PS)
target mRNA inhibition (1 µM): 65%

GCATACTTATTAAGTA (sugars k3 d10 k3, PS)
target mRNA inhibition (1 µM): 32%

AGAGGATAGTCCATGC (sugars k3 d9 k3 e1, PS)
target mRNA inhibition (0.02 µM): 0% | target mRNA inhibition (0.078 µM): 3% | target mRNA inhibition (0.313 µM): 40% | target mRNA inhibition (1 µM): 78% | target mRNA inhibition (1.25 µM): 50% | target mRNA inhibition (5 µM): 44%

TGCAGTTATTAGAAGT (sugars k3 d10 k3, PS)
target mRNA inhibition (1 µM): 46%

AACTAGAACTCCCAAC (sugars k3 d10 k3, PS)
target mRNA inhibition (1 µM): 0%

ATGTGAAGAGCTGGTA (sugars kkkddkddddddkkke, PS)
target mRNA inhibition (1 µM): 56%

CTCTATAATAAGGTAA (sugars k3 d10 k3, PS)
target mRNA inhibition (1 µM): 0%

AGACAGGTAATTAATC (sugars k3 d10 k3, PS)
target mRNA inhibition (1 µM): 29%

CTATCATGCCTTCCCC (sugars k3 d10 k3, PS)
target mRNA inhibition (1 µM): 1%

CTCCAAGGAGTGCATC (sugars k3 d10 k3, PS)
target mRNA inhibition (1 µM): 53%

ATGAGGTAAGGAATCC (sugars k3 d10 k3, PS)
target mRNA inhibition (1 µM): 0%

CTGGAACAATATGGGA (sugars k3 d10 k3, PS)
target mRNA inhibition (1 µM): 38%

GAGTCGGTCACCTTTC (sugars kkdddddddddkekek, PS)
target mRNA inhibition (1 µM): 62%

AGGAAATATAGAGGGT (sugars k3 d10 k3, PS)
target mRNA inhibition (1 µM): 54%

TCAAAGCCTGTTGGAT (sugars k3 d10 k3, PS)
target mRNA inhibition (1 µM): 35%

GTATAGTTATCTTCTC (sugars kkdddddddddkekek, PS)
target mRNA inhibition (1 µM): 49%

CCACAGAACCAATATG (sugars k3 d10 k3, PS)
target mRNA inhibition (1 µM): 49%

GATGUAGTGGGAGTCG (sugars k3 d1 m1 d8 k3, PS)
target mRNA inhibition (1 µM): 35%

CCATTATCCTTACTCC (sugars k3 d10 k3, PS)
target mRNA inhibition (1 µM): 27%

TTAAACCTTCCCTGTG (sugars kkdddddddddkekek, PS)
target mRNA inhibition (1 µM): 0%

TTGAUATTCTGTGGCA (sugars k3 d1 m1 d8 k3, PS)
target mRNA inhibition (1 µM): 60%

CTCGGGAAGTTTAGAC (sugars k3 d10 k3, PS)
target mRNA inhibition (1 µM): 47%

AACAAGAGGATAGTCC (sugars k3 d10 k3, PS)
target mRNA inhibition (1 µM): 54%

GATGTATACATTACCT (sugars k3 d10 k3, PS)
target mRNA inhibition (1 µM): 67%

CTCTGGGACCAAGGAT (sugars k3 d1 m1 d8 k3, PS)
target mRNA inhibition (1 µM): 43%

AATAGCCAGTACAGTT (sugars k3 d9 k3 e1, PS)
target mRNA inhibition (1 µM): 61%

AATATTGAGGCACTGG (sugars kkdddddddddkekek, PS)
target mRNA inhibition (1 µM): 29%

AAATATGTCCAGGTTG (sugars k3 d9 k3 e1, PS)
target mRNA inhibition (0.02 µM): 3% | target mRNA inhibition (0.078 µM): 0% | target mRNA inhibition (0.313 µM): 16% | target mRNA inhibition (1 µM): 74% | target mRNA inhibition (1.25 µM): 60% | target mRNA inhibition (5 µM): 88%

TCAAAAAGGCCCAAGG (sugars k3 d10 k3, PS)
target mRNA inhibition (1 µM): 46%

AACCAATTATATGAGG (sugars k3 d10 k3, PS)
target mRNA inhibition (1 µM): 38%

TAAGGTAAACTAAAGT (sugars k3 d10 k3, PS)
target mRNA inhibition (1 µM): 9%

AGAGTCGGTCACCTTT (sugars kkdddddddddkekek, PS)
target mRNA inhibition (1 µM): 61%
